Assay [1] relates to Escherichia coli BL21(DE3). The assay is described as follows: Inhibition of recombinant Escherichia coli BL21(DE3) aspartyl-tRNA synthetase expressed in Escherichia coli Rosetta 2 (DE3) assessed as reduction in tRNA aminoacylation at 0.1 uM preincubated for 10 mins in presence of [14C]-aspartate and tRNA and iPPase followed by ATP addition by scintillation counting method relative to control.

The nature of assay [2]: Inhibition of recombinant Escherichia coli BL21(DE3) aspartyl-tRNA synthetase expressed in Escherichia coli Rosetta 2 (DE3) assessed as reduction in tRNA aminoacylation preincubated for 10 mins in presence of [14C]-aspartate and tRNA and iPPase followed by ATP addition by scintillation counting method.
The test system of assay [3] is Escherichia coli BL21(DE3). The assay is described as follows: Inhibition of recombinant Escherichia coli BL21(DE3) aspartyl-tRNA synthetase expressed in Escherichia coli Rosetta 2 (DE3) assessed as reduction in tRNA aminoacylation at 10 nM preincubated for 10 mins in presence of [14C]-aspartate and tRNA and iPPase followed by ATP addition by scintillation counting method.

For assay [4], the system named is Escherichia coli BL21(DE3). The assay is described as follows: Inhibition of recombinant Escherichia coli BL21(DE3) isoleucyl-tRNA synthetase expressed in Escherichia coli Rosetta 2 (DE3) assessed as reduction in tRNA aminoacylation at 10 uM preincubated for 10 mins in presence of [14C]-isoleucin and tRNA and iPPase followed by ATP addition and measured after 6 mins by scintillation counting method. The note with it: time 16.0 min.

Assay [5] concerns the target Serine--tRNA ligase (Escherichia coli (strain K12)) (UniProt P0A8L1). The assay can be described thus: Inhibition of recombinant Escherichia coli BL21(DE3) seryl-tRNA synthetase expressed in Escherichia coli Rosetta 2 (DE3) assessed as reduction in tRNA aminoacylation at 0.1 uM preincubated for 10 mins in presence of [14C]-serine and tRNA and iPPase followed by ATP addition by scintillation counting method relative to control.

The target is the same in assay [6]. The assay can be described thus: Inhibition of recombinant Escherichia coli BL21(DE3) seryl-tRNA synthetase expressed in Escherichia coli Rosetta 2 (DE3) assessed as reduction in tRNA aminoacylation at 1 uM preincubated for 10 mins in presence of [14C]-serine and tRNA and iPPase followed by ATP addition by scintillation counting method relative to control.
For assay [7] the target is unchanged. The assay is described as follows: Inhibition of recombinant Escherichia coli BL21(DE3) seryl-tRNA synthetase expressed in Escherichia coli Rosetta 2 (DE3) assessed as reduction in tRNA aminoacylation at 10 uM preincubated for 10 mins in presence of [14C]-serine and tRNA and iPPase followed by ATP addition by scintillation counting method relative to control.

For assay [8], the system named is Escherichia coli BL21(DE3). The assay can be described thus: Inhibition of recombinant Escherichia coli BL21(DE3) aspartyl-tRNA synthetase expressed in Escherichia coli Rosetta 2 (DE3) assessed as reduction in tRNA aminoacylation at 1 uM preincubated for 10 mins in presence of [14C]-aspartate and tRNA and iPPase followed by ATP addition by scintillation counting method.

Active and inactive are the calls of the source. The calls are words filed in the database; no cut-off is given here.

Chain of Serine--tRNA ligase (Escherichia coli (strain K12)) (P0A8L1 whole entry, looked up): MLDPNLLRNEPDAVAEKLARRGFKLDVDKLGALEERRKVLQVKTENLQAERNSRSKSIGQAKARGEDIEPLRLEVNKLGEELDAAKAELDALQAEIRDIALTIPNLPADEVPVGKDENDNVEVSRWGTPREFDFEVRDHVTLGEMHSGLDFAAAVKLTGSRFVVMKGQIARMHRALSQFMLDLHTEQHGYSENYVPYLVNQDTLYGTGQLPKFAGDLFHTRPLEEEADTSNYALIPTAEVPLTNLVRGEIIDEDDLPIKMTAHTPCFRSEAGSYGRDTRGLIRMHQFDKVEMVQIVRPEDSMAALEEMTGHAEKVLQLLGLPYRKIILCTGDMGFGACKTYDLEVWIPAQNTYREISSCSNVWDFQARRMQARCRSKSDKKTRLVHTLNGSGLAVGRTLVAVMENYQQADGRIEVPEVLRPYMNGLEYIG

In the case of `Cn1c(=O)ccn([C@@H]2S[C@H]([C@@H](O)[C@@H](NC(=O)[C@@H](N)CC(=O)O)C(=O)O)[C@H](O)[C@H]2O)c1=O`, in assay [1], the inhibition – broadly, the relative decrease from the control value, in per cent – turned out to be 60%. The IC50 (in general, the concentration at which inhibition is half-maximal) in assay [2] amounted to 31 nM. Further, the inhibition result in assay [3] is “Active”.

Consider `CC[C@H](C)[C@H](N)C(=O)NC(C(=O)O)C(O)[C@H]1S[C@@H](n2ccc(=O)n(C)c2=O)[C@H](O)[C@H]1O` (mixture of isomers), for which the inhibition entry in assay [4] was “inactive”.

With `Cn1c(=O)ccn([C@@H]2S[C@H]([C@@H](O)[C@@H](NC(=O)[C@@H](N)CO)C(=O)O)[C@H](O)[C@H]2O)c1=O`, the inhibition in assay [5] came to 50%; in assay [6], 80%. Regarding `Cn1c(=O)ccn([C@@H]2S[C@H]([C@H](O)[C@H](NC(=O)[C@@H](N)CO)C(=O)O)[C@H](O)[C@H]2O)c1=O`, in assay [7], the inhibition stood at 25%. In the case of `Cn1c(=O)ccn([C@@H]2S[C@H]([C@H](O)[C@H](NC(=O)[C@@H](N)CC(=O)O)C(=O)O)[C@H](O)[C@H]2O)c1=O`, the inhibition entry in assay [8] was “inactive”.
